Measured values: article PMC3087488 (Journal of Oncology, 2011)

What was measured:
[1] = motesanib plasma pharmacokinetics in patients; assay type: in vivo, human
Experimental: Plasma motesanib and gemcitabine concentrations were analyzed using a validated liquid chromatography/tandem mass spectrometry (LC-MS/MS) method, respectively. […] All pharmacokinetic parameter estimates were calculated using standard noncompartmental methods and WinNonlin Professional software on […] (Version 5.1.1, Pharsight Corporation, Mountain View, Calif, USA).

[2] = system: VEGFR1; parameters: method as in PMID 16951187; conditions: cited from earlier work
[3] = system: VEGFR3; parameters: method as in PMID 16951187; conditions: cited from earlier work
[4] = system: PDGFR; parameters: method as in PMID 16951187; conditions: cited from earlier work
[5] = system: Kit; parameters: method as in PMID 16951187; conditions: cited from earlier work
[6] = system: human umbilical vein endothelial cell (HUVEC) proliferation; parameters: method as in PMID 16951187; conditions: cited from earlier work
[7] = system: cytochrome P 450 3A; conditions: cited from earlier work
[8] = system: advanced solid tumors; assay: tumor response per modified RECIST; conditions: for Confirmed complete response / Confirmed objective response, % (95% CI) / Confirmed partial response / Durable stable disease (≥24 weeks) / Progressive disease / Stable disease / Unevaluable / Clinical benefit rate (CR + PR + durable SD): gemcitabine/cisplatin
[9] = motesanib 50 mg QD (n = 8) + panitumumab
[10] = motesanib 75 mg BID (n = 2) + panitumumab
[11] = motesanib 75 mg QD (n = 6) + panitumumab
[12] = motesanib 100 mg QD (n = 6) + panitumumab
[13] = motesanib 125 mg QD (n = 11) + panitumumab

## CC1(C)CNc2cc(NC(=O)c3cccnc3NCc3ccncc3)ccc21 [motesanib]
[1]; human, in vivo, mean daily motesanib C 24 (above IC50 for HUVEC proliferation)
  concentration at 24 h: […]
[1]; human, in vivo, mean daily motesanib C 24 (higher than IC90 for HUVEC proliferation)
  concentration at 24 h: […]
[1]; human, in vivo, mean estimated terminal elimination half-life (t 1/2,z)
  half-life: […]
[1]; human, in vivo, po
  Tmax: […]
[1]; motesanib 75 mg QD (n = 3 − 6), single dose, + panitumumab, gemcitabine/cisplatin
  C max, mean (SD): 186 (92) ng/mL
[2]
  IC50: […]
[3]
  IC50: […]
[4]
  IC50: 84 nM
[5]
  IC50: […]
[6]
  90% inhibitory concentration (IC90) for HUVEC proliferation: […]
  IC50 for HUVEC proliferation: […]
[7]
  route of metabolism: […]
[8]; all 41 patients
  patients with durable (≥24 weeks) stable disease: six
[8]; all 41 patients incl. 0-mg cohort
  patients with confirmed partial response: […]
[8]; all 41 patients incl. 0-mg cohort, 10 patients, 95% CI, 12.4–40.3
  confirmed objective response: […]
[8]; all 41 patients, twenty patients
  patients with best response of stable disease: 49%
[8]; all patients
  median progression-free survival: […]
[8]; all patients, 95% CI: 2.8—not estimable
  Kaplan-Meier estimate of median progression-free survival: […]
[8]; all patients, breast cancer
  patients with complete response as best objective response: One
[8]; [9]
  Confirmed complete response: 0 (0) n (%)
  Confirmed objective response, % (95% CI): 0 (0–36.9) %
  Confirmed partial response: 0 (0) n (%)
  Durable stable disease (≥24 weeks): 0 (0) n (%)
  Unevaluable: 0 (0) n (%)
[8]; [10]
  Confirmed complete response: 0 (0) n (%)
  Durable stable disease (≥24 weeks): 0 (0) n (%)
  Progressive disease: 0 (0) n (%)
  Unevaluable: 0 (0) n (%)
[8]; [11]
  Confirmed complete response: 0 (0) n (%)
  Progressive disease: 0 (0) n (%)
[8]; [12]
  Progressive disease: 0 (0) n (%)
  Unevaluable: 0 (0) n (%)
[8]; [13]
  Confirmed complete response: 0 (0) n (%)
[8]; of the 41 patients enrolled
  patients with complete response, partial response, or stable disease as best response: […]
